“And” between values parts separate entries of the source, which are not always exact repeats. Equal entries are not always repeated. Inconclusive results and toxic doses are left out. Rule for the calls: active = survival T/C of 150% or more; inactive = T/C below 125% in these data. Peptide text beside a SMILES is read from it. * marks the point of attachment. Boc = CC(C)(C)OC(=O)*; NHNH2 = NN*
Test system: P388 leukemia ip, CD2F1 mice, survival T/C
Assay: NCI In Vivo Anticancer Drug Screen. Data for tumor model P388 Leukemia (intraperitoneal) in CD2F1 (CDF1) mice
Details: endpoint: median survival time, higher = longer survival
Method in brief: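 Mice carrying the transplanted tumor received test compound or vehicle. Survival was recorded in each group, and the value is the treated-group measurement divided by that of the vehicle-treated control group.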

[1] = dose: 50.0 mg/kg/injection, schedule: Q01DX005 (ip), vehicle: saline
[2] = dose: 50.0 mg/kg/injection, schedule: Q01DX005 (ip), vehicle: saline with Tween-80
[3] = dose: 100.0 mg/kg/injection, schedule: Q01DX005 (ip), vehicle: saline with Tween-80
[4] = dose: 60.0 mg/kg/injection, schedule: Q01DX005 (ip), vehicle: saline
[5] = dose: 120.0 mg/kg/injection, schedule: Q01DX005 (ip), vehicle: saline
[6] = dose: 240.0 mg/kg/injection, schedule: Q01DX005 (ip), vehicle: saline
[7] = dose: 60.0 mg/kg/injection, schedule: Q01DX005 (ip), vehicle: saline with Tween-80
[8] = dose: 120.0 mg/kg/injection, schedule: Q01DX005 (ip), vehicle: saline with Tween-80
[9] = dose: 240.0 mg/kg/injection, schedule: Q01DX005 (ip), vehicle: saline with Tween-80
[10] = dose: 100.0 mg/kg/injection, schedule: Q01DX009 (ip), vehicle: saline with Tween-80

Measured: T/C

C=C(Cl)C(=NC(C)(C)C)Nc1ccccc1
inactive: dose: 50.0 mg/kg/injection, schedule: Q01DX005 (ip), vehicle: Klucel (hydroxypropylcellulose) (HPC) 102 % of control | dose: 100.0 mg/kg/injection, schedule: Q01DX005 (ip), vehicle: Klucel (hydroxypropylcellulose) (HPC) 92 % of control

O=C(O)CSc1nc2ccc(N3C(=O)C4C5C=CC(C5)C4C3=O)cc2s1 (stereo not given)
inactive: dose: 50.0 mg/kg/injection, schedule: Q01DX009 (ip), vehicle: Klucel (hydroxypropylcellulose) (HPC) 90 % of control | dose: 100.0 mg/kg/injection, schedule: Q01DX009 (ip), vehicle: Klucel (hydroxypropylcellulose) (HPC) 105 % of control | dose: 200.0 mg/kg/injection, schedule: Q01DX009 (ip), vehicle: Klucel (hydroxypropylcellulose) (HPC) 99 % of control

COc1ccc(/C=C2/C/C(=C/c3ccc(OC)cc3)C2=O)cc1
inactive: dose: 100.0 mg/kg/injection, schedule: Q04DX003 (ip), vehicle: Klucel (hydroxypropylcellulose) (HPC) 95 % of control | dose: 200.0 mg/kg/injection, schedule: Q04DX003 (ip), vehicle: Klucel (hydroxypropylcellulose) (HPC) 103 % of control | dose: 400.0 mg/kg/injection, schedule: Q04DX003 (ip), vehicle: Klucel (hydroxypropylcellulose) (HPC) 97 % of control

CC(C)=C(Nc1ccccc1)NC(C)C
inactive: dose: 6.25 mg/kg/injection, schedule: Q01DX005 (ip), vehicle: saline 103 % of control | dose: 12.5 mg/kg/injection, schedule: Q01DX005 (ip), vehicle: saline 103 % of control and 104 % of control | dose: 25.0 mg/kg/injection, schedule: Q01DX005 (ip), vehicle: saline 106 % of control and 120 % of control | [1] 118 % of control

CSc1nc(NC2OC(COC(C)=O)C(OC(C)=O)C(OC(C)=O)C2OC(C)=O)c(C(=O)CCl)c(=O)n1C (stereo not given)
inactive: [2] 102 % of control | [3] 96 % of control | dose: 200.0 mg/kg/injection, schedule: Q01DX005 (ip), vehicle: saline with Tween-80 92 % of control

Cc1csc(N)n1
inactive: dose: 100.0 mg/kg/injection, schedule: Q04DX002 (ip), vehicle: saline 97 % of control | dose: 200.0 mg/kg/injection, schedule: Q04DX002 (ip), vehicle: saline 95 % of control | dose: 400.0 mg/kg/injection, schedule: Q04DX002 (ip), vehicle: saline 101 % of control

C1=C[N-]c2c3c(ccc2=C1)=CC=C[N-]3.C1=C[N-]c2c3c(ccc2=C1)=CC=C[N-]3.O=S(=O)(O)O.[Cu+2]
inactive: dose: 1.56 mg/kg/injection, schedule: Q04DX002 (ip), vehicle: Klucel (hydroxypropylcellulose) (HPC) 117 % of control | dose: 3.12 mg/kg/injection, schedule: Q04DX002 (ip), vehicle: Klucel (hydroxypropylcellulose) (HPC) 107 % of control | dose: 6.25 mg/kg/injection, schedule: Q04DX002 (ip), vehicle: Klucel (hydroxypropylcellulose) (HPC) 107 % of control | dose: 12.5 mg/kg/injection, schedule: Q04DX002 (ip), vehicle: Klucel (hydroxypropylcellulose) (HPC) 115 % of control

O=C1C(Cl)=C(NCCCN(CCCNC2=C(Cl)C(=O)c3ccccc3C2=O)C2=C(Cl)C(=O)c3ccccc3C2=O)C(=O)c2ccccc21
inactive: dose: 50.0 mg/kg/injection, schedule: Q01DX009 (ip), vehicle: saline 108 % of control and 118 % of control | dose: 100.0 mg/kg/injection, schedule: Q01DX009 (ip), vehicle: saline 109 % of control and 115 % of control | dose: 200.0 mg/kg/injection, schedule: Q01DX009 (ip), vehicle: saline 105 % of control and 108 % of control

O=C1c2ccccc2C(=O)c2c1cc1c(O)c(CN3CCCC3)ccc1c2O
inactive: [2] 92 % of control | [3] 89 % of control

CC(C)CC(NC(=O)C(Cc1c[nH]c2ccccc12)NC(=O)OC(C)(C)C)C(=O)NN (stereo not drawn) (Boc-Trp-Leu-NHNH2; configuration not given here)
inactive: dose: 12.5 mg/kg/injection, schedule: Q01DX009 (ip), vehicle: other 100 % of control | dose: 25.0 mg/kg/injection, schedule: Q01DX009 (ip), vehicle: other 94 % of control | dose: 50.0 mg/kg/injection, schedule: Q01DX009 (ip), vehicle: other 97 % of control | dose: 100.0 mg/kg/injection, schedule: Q01DX009 (ip), vehicle: other 105 % of control and 110 % of control

COc1ccc(/C=N\N=C(/[O-])c2ccccc2O)cc1.COc1ccc(/C=N\N=C(/[O-])c2ccccc2O)cc1.[Cu+2].[OH3+].[OH3+]
inactive: dose: 25.0 mg/kg/injection, schedule: Q04DX002 (ip), vehicle: saline with Tween-80 98 % of control | dose: 50.0 mg/kg/injection, schedule: Q04DX002 (ip), vehicle: saline with Tween-80 93 % of control | dose: 100.0 mg/kg/injection, schedule: Q04DX002 (ip), vehicle: saline with Tween-80 93 % of control

C=CC(=NC(C)C)Nc1ccccc1
inactive: dose: 1.56 mg/kg/injection, schedule: Q01DX009 (ip), vehicle: saline 112 % of control | dose: 3.12 mg/kg/injection, schedule: Q01DX009 (ip), vehicle: saline 105 % of control | dose: 6.25 mg/kg/injection, schedule: Q01DX009 (ip), vehicle: saline 104 % of control and 113 % of control

CC1=CP(=O)(c2ccccc2)CC1 (stereo not given) (tested in a mixture with another compound)
inactive: [4] 93 % of control | [5] 99 % of control | [6] 102 % of control

OCCOc1ccc2ccccc2c1-c1c(OCCOc2ccc3ccccc3c2-c2c(OCCO)ccc3ccccc23)ccc2ccccc12
inactive: dose: 100.0 mg/kg/injection, schedule: Q01DX001 (ip), vehicle: saline with Tween-80 96 % of control | dose: 200.0 mg/kg/injection, schedule: Q01DX001 (ip), vehicle: saline with Tween-80 88 % of control | dose: 400.0 mg/kg/injection, schedule: Q01DX001 (ip), vehicle: saline with Tween-80 92 % of control

CCn1c(=O)c(Cl)c2n(CC)c3ccccc3n2c1=O
inactive: [7] 97 % of control | [8] 89 % of control | [9] 87 % of control

COc1ccc(C(=Nc2ccc(C)cc2)c2ccc([N+](=O)[O-])cc2)cc1
inactive: [10] 90 % of control | dose: 100.0 mg/kg/injection, schedule: Q04DX003 (ip), vehicle: saline with Tween-80 95 % of control | dose: 200.0 mg/kg/injection, schedule: Q01DX009 (ip), vehicle: saline with Tween-80 90 % of control | dose: 200.0 mg/kg/injection, schedule: Q04DX003 (ip), vehicle: saline with Tween-80 95 % of control | dose: 400.0 mg/kg/injection, schedule: Q01DX009 (ip), vehicle: saline with Tween-80 90 % of control | dose: 400.0 mg/kg/injection, schedule: Q04DX003 (ip), vehicle: saline with Tween-80 100 % of control

CC1=C(C#N)C(=O)OC1(C)C(CC(=O)c1ccccc1)c1ccccc1 (stereo not given)
inactive: [7] 92 % of control | [8] 87 % of control | [9] 91 % of control

CC1CC(c2ccccc2)(c2ccccc2)CN1C (stereo not given)
inactive: dose: 12.5 mg/kg/injection, schedule: Q01DX005 (ip), vehicle: saline with Tween-80 105 % of control | dose: 25.0 mg/kg/injection, schedule: Q01DX005 (ip), vehicle: saline with Tween-80 102 % of control | [2] 102 % of control and 103 % of control

CCN(CC)P1(=O)C=C(C)C2C1C1C=C(C)C2P1(=O)N(CC)CC (stereo not given)
inactive: [4] 108 % of control | [5] 101 % of control | [6] 102 % of control

OCCN1CCC(C2CCN(CCO)CC2)CC1
inactive: [1] 96 % of control | dose: 100.0 mg/kg/injection, schedule: Q01DX005 (ip), vehicle: saline 97 % of control | dose: 200.0 mg/kg/injection, schedule: Q01DX005 (ip), vehicle: saline 98 % of control

O=C(SCN1CCCCC1)c1ccccc1
inactive: dose: 25.0 mg/kg/injection, schedule: Q01DX009 (ip), vehicle: saline with Tween-80 100 % of control | dose: 50.0 mg/kg/injection, schedule: Q01DX009 (ip), vehicle: saline with Tween-80 113 % of control | [10] 109 % of control

CN(C)CCN1c2ccccc2Sc2ccc3ccccc3c21
inactive: dose: 50.0 mg/kg/injection, schedule: Q01DX005 (ip), vehicle: saline + Tween-80 + alcohol 104 % of control | dose: 100.0 mg/kg/injection, schedule: Q01DX005 (ip), vehicle: saline + Tween-80 + alcohol 107 % of control | dose: 200.0 mg/kg/injection, schedule: Q01DX005 (ip), vehicle: saline + Tween-80 + alcohol 107 % of control
